Source: article PMC12268434 (ACS Omega, 2025)

Tests used:
[1] = system: U-87 MG cells; assay: Flow cytometry; assay type: cell-based, human; settings: IC50 concentrations, 24 h
[2] = system: U-87 MG glioma cells; assay: CCK-8 cell viability assay, U-87 MG; assay type: cell-based, human; settings: U-87 MG glioma / glioblastoma cells

With `COc1cccc2c1C(=O)c1c(O)c3c(c(O)c1C2=O)C[C@@](O)(C(=O)CO)C[C@@H]3O[C@H]1C[C@H](N)[C@H](O)[C@H](C)O1` [DOX, doxorubicin] the “induction of apoptosis (Annexin V-FITC/PI, in words)” value [1] was “induce apoptosis”.

With `COc1c(O)cc2c(c1OC)-c1ccc(O)cc1CC2` [compound 7, erianthridin] the “cytotoxic activity (in words)” value [2] was “no cytotoxic activity”.

For `COc1c(O)cc2ccc3cc(O)ccc3c2c1OC` [compound 6, nudol], the “cytotoxic activity (in words)” value [2] was “no cytotoxic activity”.
